# Data as given in patent publication US11110078B2, “Composition and method for treatment of diseases associated with central nervous system inflammation” (AMRITA VISHWA VIDYAPEETHAM, priority 2019, dated 2021).
# What was measured:
# [1] = tested on: astrocytes; test: MTT cell viability assay on cultured astrocytes; format: cell-based; conditions: 48 hours incubation, 0-3 mg/mL tested
# Method: In order to test whether virtually screened GMFBI.1 drug like compound is toxic to the cells, different concentrations (0-3 mg/mL) of GMFBI.1 on astrocytes were tested. Test includes performing MTT cell viability assay following 48 hours of incubation with GMFBI.1. […] NC represents […] with 10% Triton X-100.
# [2] = biological target: GMF-β (Homo sapiens, UniProt P60983); test: In vitro phosphorylation of purified GMF-β by PKA; format: biochemical; conditions: 250 ng/mL GMFBI.1, 1 μg/mL GMF-β, versus lane without compound
# Method: With the in silico proof of concept showing high binding efficacy to GMF-β phosphorylation sites, in vitro phosphorylation studies using PKA (PKA phosphorylation results in activation of the downstream proinflammatory cascade) and purified GMF-β in presence and absence of GMFBI.1 compound is performed. […] In FIG. 4B, “+” sign indicates experiment with 1 μg/mL GMF-β and PKA, “−” indicates control reaction in the absence of PKA and “GMFBI.1” indicates phosphorylation level on GMF-β in the presence of small molecule GMFBI.1 (250 ng/mL).
# [3] = tested on: p38MAPK; test: p38MAPK expression in LPS stimulated cultured astrocytes; format: cell-based; conditions: 500 ng/mL, n=3
# [4] = tested on: NFκB; test: NFκB expression in LPS stimulated cultured astrocytes; format: cell-based; conditions: 500 ng/mL, n=3
# [5] = In vivo toxicity: serum AST and ALT liver enzymes; parameters: species or system mice; conditions: 3, 10 and 25 days
# Method: In vitro efficacy of GMFBI.1 compound in down regulating the expression of both proinflammatory mediators p38MAPK and NFκB under the control of GMF-β and its non-toxic nature at lower concentrations was first evaluated. The levels of aspartate amino transferase (AST) and alanine amino transferase (ALT) were measured spectrophotometrically from serum of GMFBI.1 compound administered animals to monitor its liver function as shown in FIG. 6A and FIG. 6B respectively. […] Grey shaded region denotes the normal range of AST and ALT enzymes in mice in FIG. 6A and FIG. 6B respectively.
# The GMFBI.1 compound distribution in various compartments (organs, plasma & urine) of normal healthy mice at different time intervals (30 minutes, 1, 2, 3 and 6 hours) and its distribution profile (n=3 per group), is shown in FIG. 6C. […] Further, again 300 μg of GMFBI.1 was injected in EAE animals and the blood brain barrier is compromised as in MS patients. […] Both AST and ALT activity was measured at 3, 10 and 25 days.
# [6] = Bio-distribution in compartments of normal healthy mice; format: in vivo, C57BL/6 mice; conditions: 300 μg intraperitoneal
# Method: (§1) The GMFBI.1 compound distribution in various compartments (organs, plasma & urine) of normal healthy mice at different time intervals (30 minutes, 1, 2, 3 and 6 hours) and its distribution profile (n=3 per group), is shown in FIG. 6C. […] Further, again 300 μg of GMFBI.1 was injected in EAE animals and the blood brain barrier is compromised as in MS patients. […] Based on these observations, mice was injected twice daily with 300 μg/mice (12 mg/Kg) GMFBI.1 for 25 days. Both AST and ALT activity was measured at 3, 10 and 25 days.
# [7] = Distribution into brain of EAE mice; format: in vivo
# Method: as §1
# (§2) Treatment was given to a group of animals with average clinical score of 3 for a period of 2 weeks. EAE induced animals were injected at clinical score 3.5 with GMFBI.1 compound 300 μg/mice (12 mg/Kg) twice daily at day 13.EAE clinical scores of C57BL/6 mice treated with GMFBI.1 compound ([…] i.p twice daily) and controls with saline (n=5 per group) is shown in FIG. 7A.
# [8] = tested on: EAE induced animals; test: Reversal of EAE: clinical scores in paralyzed EAE animals; format: in vivo, C57BL/6 mice
# Method: as §2
# (§3) Animals were sacrificed 25 days after GMFBI.1 compound treatment and the levels of leukocyte infiltrates in brain as shown in FIG. 7C and spinal cord as shown in FIG. 7D were compared against EAE control by Haematoxylin and Eosin(H and E) staining.
# [9] = tested on: EAE induced animals; test: Leukocyte infiltrates in brain and spinal cord of EAE animals by H and E staining; format: in vivo, C57BL/6 mice; conditions: 25 days after treatment, versus saline treated EAE controls, P<0.05, n=3
# Excerpt: as §3
# [10] = tested on: proinflammatory and anti-inflammatory cytokines; test: Cytokine levels in treated EAE animals (relative fold change); format: in vivo, C57BL/6 mice
# Excerpt: From FIG. 7G, it is observed that down regulation of these inflammatory cytokines has potential significance in the therapy and increased levels of anti-inflammatory cytokines particularly IL-10 and TGF beta levels. In MS patients, the levels of TGF beta and IL-10 are low compared to healthy individuals and significant down regulation of IL-17 are promising as IL-17 drives the inflammation in EAE and MS disease.
# [11] = 300 μg/mice twice daily for 25 days
# [12] = versus untreated EAE controls, n=3
# Sequence of GMF-β (P60983 2-142 limits assumed): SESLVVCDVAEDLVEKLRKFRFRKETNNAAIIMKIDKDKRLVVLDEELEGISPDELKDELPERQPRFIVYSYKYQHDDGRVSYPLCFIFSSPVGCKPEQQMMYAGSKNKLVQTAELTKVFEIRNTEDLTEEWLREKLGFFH
smiles,measurement,setting,value
"OCc1cccc2[nH]ncc12 [GMFBI.1, (1-H Indazol-4-yl)-methanol]",concentration up to which astrocytes remained viable,[1],≤ 1000 µg/mL
same,phosphorylation of GMF-β by PKA,[2],several fold decrease in phosphorylation
same,p38MAPK protein expression,[3],statistically significant suppression
same,NFκB protein expression,[4],statistically significant suppression
same,ALT activity level versus control,[5]; [11],remained similar to that of control
same,AST activity level versus control,[5]; [11],remained similar to that of control
same,serum ALT level versus saline controls,[5]; 14 mg/kg twice daily,No significant difference
same,serum AST level versus saline controls,[5]; 14 mg/kg twice daily,No significant difference
same,amount of compound in liver within three hours,[6],significantly reduced compared to 2 hrs
same,compound in brain of healthy mice at any time period,[6],no GMFBI.1 compound was detected in the brains
same,compound in kidney within three hours,[6],transiently seen in kidney
same,compound in plasma at 30 mins to 1 hr,[6],most of the GMFBI.1 compound remained in the plasma
same,compound in plasma by two hours,[6],no GMFBI.1 compound could be detected in plasma
same,compound in urine within three hours,[6],found majorly in urine
same,free compound in organs by 6 hrs,[6],no free GMFBI.1 compound in any of the organs were detected
same,amount of compound in brain by 3 hrs,"[7]; 300 μg injected, EAE animals",≤ 15 µg
same,compound in brain by 6 hrs,"[7]; 300 μg injected, EAE animals",no GMFBI.1 may be detected in the brain
same,time by which compound is detected in brain,"[7]; 300 μg injected, EAE animals",≤ 2 h
same,blood brain barrier crossing,[7]; EAE mice,able to cross the blood brain barrier
same,retention in the system,[7]; EAE mice,at least three hours
same,EAE clinical score by day 18,"[8]; 300 μg/mice (12 mg/Kg; also printed 14 mg/kg i.p) twice daily from day 13, n=5",the clinical score started to improve
same,clinical score versus control,"[8]; from 7th day after treatment, P<0.001",Significant reduction in the clinical score
same,body weight over time versus control animals,[8]; treated EAE animals,significant weight gain
same,EAE clinical score by day 40,[8]; twice daily i.p. from day 13,very low clinical score
same,locomotor motion by day 30,[8]; twice daily i.p. from day 13,able to show improvements in locomotor motion and was able to walk
same,number of cellular infiltrates in brain,[9],significant reduction in the number of cellular infiltrates
same,number of cellular infiltrates in spinal cord,[9],significant reduction in the number of cellular infiltrates
same,IL1-β level,[10]; following treatment,down regulated significantly
same,GMCSF level,"[10]; versus EAE controls, n=3",significant decrease
same,IFN-γ level,"[10]; versus EAE controls, n=3",significant decrease
same,IL-6 level,"[10]; versus EAE controls, n=3",significant decrease
same,IL-17A level,"[10]; versus EAE controls, n=3",significant decrease
same,TNF-α level,"[10]; versus EAE controls, n=3",significant decrease
same,IL-10 level (anti-inflammatory),[10]; [12],elevated significantly
same,TGF-β level (anti-inflammatory),[10]; [12],elevated significantly
